Data as given in the supplement of paper PMC6411743.

compound: Nc1ncnc2c1ncn2[C@@H]1O[C@H](COP(=O)(O)OP(=O)(O)OP(=O)(O)O)[C@@H](O)[C@H]1O [adenosine triphosphate]; experiment: pEC50 of ATP-induced change in protein thermal stability (2D-TPP)
Procedure: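 2D thermal proteome profiling in mechanically disrupted Jurkat crude lysate. Lysate was treated 10 min at room temperature with Na-ATP (0, 0.005, 0.05, 0.5, 2 mM), heated to 12 temperatures (42-63.9 °C) for 3 min, and soluble protein was quantified by TMT10 LC-MS/MS. pEC50 is the median over replicates of dose-response fits at the lowest temperature showing a fold change of at least 1.5 (FDR-controlled hits).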

UniProt Q15717, sequence (Q15717 whole entry): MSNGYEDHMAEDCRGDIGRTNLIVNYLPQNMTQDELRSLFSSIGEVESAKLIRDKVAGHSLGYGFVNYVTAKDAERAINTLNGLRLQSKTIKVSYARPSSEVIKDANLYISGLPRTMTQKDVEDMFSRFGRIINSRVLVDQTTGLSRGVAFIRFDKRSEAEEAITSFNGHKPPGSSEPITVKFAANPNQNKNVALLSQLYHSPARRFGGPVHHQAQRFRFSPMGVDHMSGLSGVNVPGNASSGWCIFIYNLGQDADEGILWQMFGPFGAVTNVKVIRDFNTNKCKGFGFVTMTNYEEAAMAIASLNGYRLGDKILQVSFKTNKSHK
UniProt P22102, sequence (P22102 whole entry): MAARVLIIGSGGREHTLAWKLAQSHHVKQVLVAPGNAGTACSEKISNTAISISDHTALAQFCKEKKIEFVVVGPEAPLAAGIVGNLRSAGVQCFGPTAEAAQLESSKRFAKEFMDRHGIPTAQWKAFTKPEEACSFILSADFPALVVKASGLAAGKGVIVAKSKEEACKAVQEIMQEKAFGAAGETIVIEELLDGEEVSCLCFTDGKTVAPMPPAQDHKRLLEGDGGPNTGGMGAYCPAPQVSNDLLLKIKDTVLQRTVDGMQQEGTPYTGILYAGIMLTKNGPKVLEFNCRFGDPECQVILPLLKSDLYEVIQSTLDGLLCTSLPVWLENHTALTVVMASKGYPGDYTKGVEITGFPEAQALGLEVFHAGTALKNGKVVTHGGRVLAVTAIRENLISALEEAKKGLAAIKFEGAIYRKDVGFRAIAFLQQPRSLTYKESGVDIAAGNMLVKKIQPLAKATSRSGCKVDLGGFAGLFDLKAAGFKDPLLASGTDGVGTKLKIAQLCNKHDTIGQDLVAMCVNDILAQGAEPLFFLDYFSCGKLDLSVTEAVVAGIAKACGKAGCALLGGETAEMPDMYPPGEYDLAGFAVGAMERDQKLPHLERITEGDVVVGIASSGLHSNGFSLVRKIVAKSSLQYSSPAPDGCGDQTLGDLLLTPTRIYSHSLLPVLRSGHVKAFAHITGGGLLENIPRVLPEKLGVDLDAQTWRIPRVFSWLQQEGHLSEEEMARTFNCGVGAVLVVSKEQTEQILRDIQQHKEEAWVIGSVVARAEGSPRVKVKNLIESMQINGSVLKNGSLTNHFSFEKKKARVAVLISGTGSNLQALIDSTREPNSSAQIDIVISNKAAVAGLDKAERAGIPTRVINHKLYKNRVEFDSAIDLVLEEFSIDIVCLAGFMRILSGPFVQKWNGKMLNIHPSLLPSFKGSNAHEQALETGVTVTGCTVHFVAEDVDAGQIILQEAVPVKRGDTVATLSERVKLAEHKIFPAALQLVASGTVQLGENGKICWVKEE
UniProt P16401, sequence (P16401 whole entry): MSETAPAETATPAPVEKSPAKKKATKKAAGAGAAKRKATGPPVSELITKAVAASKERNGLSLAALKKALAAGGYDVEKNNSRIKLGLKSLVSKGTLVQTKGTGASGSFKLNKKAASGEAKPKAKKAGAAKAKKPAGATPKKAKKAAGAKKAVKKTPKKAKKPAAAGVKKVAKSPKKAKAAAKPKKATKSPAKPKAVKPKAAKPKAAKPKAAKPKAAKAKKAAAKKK
UniProt Q7Z4Q2, sequence (Q7Z4Q2 whole entry): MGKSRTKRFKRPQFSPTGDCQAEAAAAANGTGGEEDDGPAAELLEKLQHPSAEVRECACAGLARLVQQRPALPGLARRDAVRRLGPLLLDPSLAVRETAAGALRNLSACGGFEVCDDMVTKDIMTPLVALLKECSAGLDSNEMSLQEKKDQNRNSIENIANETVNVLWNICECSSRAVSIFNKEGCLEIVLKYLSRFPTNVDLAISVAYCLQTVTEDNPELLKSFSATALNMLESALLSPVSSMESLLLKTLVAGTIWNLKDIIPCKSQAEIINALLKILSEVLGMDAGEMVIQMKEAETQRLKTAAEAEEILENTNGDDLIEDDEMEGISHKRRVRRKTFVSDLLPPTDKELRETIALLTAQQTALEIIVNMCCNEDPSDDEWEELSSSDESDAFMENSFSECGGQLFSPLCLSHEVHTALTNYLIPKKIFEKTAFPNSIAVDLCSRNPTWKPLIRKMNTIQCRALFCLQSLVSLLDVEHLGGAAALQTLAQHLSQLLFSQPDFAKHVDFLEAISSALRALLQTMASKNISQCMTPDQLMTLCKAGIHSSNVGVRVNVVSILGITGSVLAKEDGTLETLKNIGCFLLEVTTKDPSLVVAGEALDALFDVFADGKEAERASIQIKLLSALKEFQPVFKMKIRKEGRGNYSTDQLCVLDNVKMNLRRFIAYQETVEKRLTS
UniProt P48637, sequence (P48637 whole entry): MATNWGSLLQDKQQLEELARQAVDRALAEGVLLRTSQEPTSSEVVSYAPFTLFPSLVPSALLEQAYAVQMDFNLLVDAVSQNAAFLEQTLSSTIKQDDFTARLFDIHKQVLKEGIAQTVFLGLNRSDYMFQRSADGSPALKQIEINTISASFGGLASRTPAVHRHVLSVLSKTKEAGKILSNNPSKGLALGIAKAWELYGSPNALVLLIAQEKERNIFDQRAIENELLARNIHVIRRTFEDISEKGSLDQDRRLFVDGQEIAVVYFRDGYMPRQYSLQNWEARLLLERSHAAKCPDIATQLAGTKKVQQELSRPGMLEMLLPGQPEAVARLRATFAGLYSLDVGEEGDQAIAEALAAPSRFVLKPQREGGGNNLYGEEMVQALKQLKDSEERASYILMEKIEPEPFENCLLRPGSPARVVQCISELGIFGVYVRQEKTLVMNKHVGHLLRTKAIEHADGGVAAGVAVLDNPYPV
UniProt Q9UNI6, sequence (Q9UNI6 whole entry): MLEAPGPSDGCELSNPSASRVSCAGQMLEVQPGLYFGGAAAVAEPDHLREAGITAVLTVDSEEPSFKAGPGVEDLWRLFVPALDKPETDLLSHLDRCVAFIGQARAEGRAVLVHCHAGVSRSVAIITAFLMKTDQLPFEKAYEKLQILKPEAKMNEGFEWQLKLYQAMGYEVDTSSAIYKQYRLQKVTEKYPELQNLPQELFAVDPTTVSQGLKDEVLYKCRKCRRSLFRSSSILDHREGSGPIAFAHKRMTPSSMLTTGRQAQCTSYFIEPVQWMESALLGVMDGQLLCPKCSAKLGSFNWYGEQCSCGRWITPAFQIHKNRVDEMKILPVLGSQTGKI
UniProt Q9Y285, sequence (Q9Y285 whole entry): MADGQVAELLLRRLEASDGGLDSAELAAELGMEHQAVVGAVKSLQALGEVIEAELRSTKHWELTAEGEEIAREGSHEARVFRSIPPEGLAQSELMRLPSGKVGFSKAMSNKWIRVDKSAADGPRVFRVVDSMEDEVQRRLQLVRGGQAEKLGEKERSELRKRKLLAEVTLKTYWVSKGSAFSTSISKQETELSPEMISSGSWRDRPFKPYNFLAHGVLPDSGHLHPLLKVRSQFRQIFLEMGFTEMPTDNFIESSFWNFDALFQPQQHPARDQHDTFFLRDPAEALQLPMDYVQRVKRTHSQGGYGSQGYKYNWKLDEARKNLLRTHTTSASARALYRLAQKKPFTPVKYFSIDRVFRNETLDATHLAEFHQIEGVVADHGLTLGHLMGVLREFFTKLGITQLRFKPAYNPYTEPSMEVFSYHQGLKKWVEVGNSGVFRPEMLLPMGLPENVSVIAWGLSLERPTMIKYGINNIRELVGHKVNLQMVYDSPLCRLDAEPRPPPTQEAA
UniProt Q13588, sequence (Q13588 whole entry): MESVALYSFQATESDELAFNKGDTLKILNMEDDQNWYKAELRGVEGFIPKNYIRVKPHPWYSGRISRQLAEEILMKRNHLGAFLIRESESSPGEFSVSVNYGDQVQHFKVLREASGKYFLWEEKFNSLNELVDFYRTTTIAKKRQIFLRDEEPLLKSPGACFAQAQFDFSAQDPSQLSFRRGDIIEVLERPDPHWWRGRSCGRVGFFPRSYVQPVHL
UniProt Q96C19, sequence (Q96C19 whole entry): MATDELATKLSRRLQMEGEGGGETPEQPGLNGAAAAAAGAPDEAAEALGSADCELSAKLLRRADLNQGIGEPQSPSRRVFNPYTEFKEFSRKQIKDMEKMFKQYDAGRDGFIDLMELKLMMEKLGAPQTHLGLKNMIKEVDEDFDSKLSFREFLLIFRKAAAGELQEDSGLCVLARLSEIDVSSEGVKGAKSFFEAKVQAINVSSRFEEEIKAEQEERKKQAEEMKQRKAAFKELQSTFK
UniProt Q9BUP0, sequence (Q9BUP0 whole entry): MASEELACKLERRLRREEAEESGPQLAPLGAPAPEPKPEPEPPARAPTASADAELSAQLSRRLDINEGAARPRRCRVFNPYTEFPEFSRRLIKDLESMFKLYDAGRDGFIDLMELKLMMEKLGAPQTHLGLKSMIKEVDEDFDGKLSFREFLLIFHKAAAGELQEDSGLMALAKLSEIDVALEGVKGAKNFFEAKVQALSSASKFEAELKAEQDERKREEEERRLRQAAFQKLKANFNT
UniProt Q04760, sequence (Q04760 whole entry, looked up): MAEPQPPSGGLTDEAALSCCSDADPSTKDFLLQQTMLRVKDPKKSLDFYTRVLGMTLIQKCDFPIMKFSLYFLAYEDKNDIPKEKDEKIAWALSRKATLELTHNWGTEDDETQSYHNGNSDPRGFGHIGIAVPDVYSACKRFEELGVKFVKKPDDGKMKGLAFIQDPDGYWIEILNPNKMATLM
UniProt Q13451, sequence (Q13451 whole entry): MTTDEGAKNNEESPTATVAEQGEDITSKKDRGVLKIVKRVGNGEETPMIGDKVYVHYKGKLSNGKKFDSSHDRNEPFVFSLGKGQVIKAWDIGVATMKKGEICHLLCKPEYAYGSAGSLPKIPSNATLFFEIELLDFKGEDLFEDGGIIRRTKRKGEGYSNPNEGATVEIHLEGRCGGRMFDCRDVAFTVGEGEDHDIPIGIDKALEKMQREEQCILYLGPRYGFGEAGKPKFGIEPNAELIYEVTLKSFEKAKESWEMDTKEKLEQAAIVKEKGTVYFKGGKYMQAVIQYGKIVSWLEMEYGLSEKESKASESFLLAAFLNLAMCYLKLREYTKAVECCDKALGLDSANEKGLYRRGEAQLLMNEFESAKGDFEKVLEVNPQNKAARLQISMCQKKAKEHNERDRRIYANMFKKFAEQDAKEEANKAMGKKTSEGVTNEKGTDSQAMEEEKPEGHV

pEC50 | Target
< 2.7 | DRAP1 (effect direction: destabilized) (UniProt Q14919)
2.91 | DUS3L (effect direction: stabilized) (UniProt Q96G46)
< 2.7 | DUSP12 (effect direction: stabilized) (UniProt Q9UNI6)
3.39 | DYNC1H1 (effect direction: stabilized) (UniProt Q14204)
3.49 | DYRK1A (effect direction: stabilized) (UniProt Q13627)
< 2.7 | EDF1 (effect direction: stabilized) (UniProt O60869)
< 2.7 | EEF1D (effect direction: stabilized) (UniProt P29692)
< 2.7 | EEF1G (effect direction: stabilized) (UniProt P26641)
3.18 | EFHD1 (effect direction: destabilized) (UniProt Q9BUP0)
3.08 | EFHD2 (effect direction: destabilized) (UniProt Q96C19)
3.86 | EHD4 (effect direction: stabilized) (UniProt Q9H223)
2.83 | EIF2B2 (effect direction: stabilized) (UniProt P49770)
3.82 | EIF2B3 (effect direction: stabilized) (UniProt Q9NR50)
4.48 | EIF3A (effect direction: destabilized) (UniProt Q14152)
< 2.7 | EIF3K (effect direction: stabilized) (UniProt Q9UBQ5)
< 2.7 | EIF3L (effect direction: stabilized) (UniProt Q9Y262)
3.68 | EIF4A3 (effect direction: stabilized) (UniProt P38919)
2.71 | EIF4G1 (effect direction: stabilized) (UniProt Q04637)
< 2.7 | EIF4G2 (effect direction: stabilized) (UniProt P78344)
< 2.7 | EIF5 (effect direction: stabilized) (UniProt P55010)
3.02 | ELAVL1 (effect direction: stabilized) (UniProt Q15717)
5.25 | EMG1 (effect direction: stabilized) (UniProt Q92979)
2.93 | EML4 (effect direction: destabilized) (UniProt Q9HC35)

pEC50 | Target
< 2.7 | ENO1 (effect direction: destabilized) (UniProt P06733)
2.99 | ENO2 (effect direction: destabilized) (UniProt P09104)
< 2.7 | ENO3 (effect direction: destabilized) (UniProt P13929)
4.04 | EPRS (effect direction: destabilized) (UniProt P07814)
2.94 | EPS15L1 (effect direction: destabilized) (UniProt Q9UBC2)
< 2.7 | ETFA (effect direction: stabilized) (UniProt P13804)
3 | EXOC2 (effect direction: stabilized) (UniProt Q96KP1)
2.79 | FAF1 (effect direction: stabilized) (UniProt Q9UNN5)
< 2.7 | FAHD2A (effect direction: destabilized) (UniProt Q96GK7)
3.12 | FAM20B (effect direction: stabilized) (UniProt O75063)
2.78 | FAM49B (effect direction: stabilized) (UniProt Q9NUQ9)
3.19 | FAM118A (effect direction: stabilized) (UniProt Q9NWS6)
3.13 | FAM162A (effect direction: destabilized) (UniProt Q96A26)
3.47 | FARSA (effect direction: stabilized) (UniProt Q9Y285)
3.16 | FARSB (effect direction: stabilized) (UniProt Q9NSD9)
3.44 | FBL (effect direction: destabilized) (UniProt P22087)
3.26 | FDXR (effect direction: stabilized) (UniProt P22570)
3.08 | FH (effect direction: stabilized) (UniProt P07954)
3.82 | FIGNL1 (effect direction: stabilized) (UniProt Q6PIW4)
< 2.7 | FKBP4 (effect direction: stabilized) (UniProt Q02790)
< 2.7 | FKBP5 (effect direction: stabilized) (UniProt Q13451)
3.36 | FKBP8 (effect direction: stabilized) (UniProt Q14318)
4.17 | FN3KRP (effect direction: stabilized) (UniProt Q9HA64)

pEC50 | Target
3.22 | FNTA (effect direction: stabilized) (UniProt P49354)
3.36 | FOXK1 (effect direction: stabilized) (UniProt P85037)
3.76 | FOXK2 (effect direction: stabilized) (UniProt Q01167)
3.22 | FTSJ3 (effect direction: destabilized) (UniProt Q8IY81)
> 5.3 | FUCA1 (effect direction: destabilized) (UniProt P04066)
< 2.7 | G6PD (effect direction: stabilized) (UniProt P11413)
< 2.7 | GAPDH (effect direction: stabilized) (UniProt P04406)
4.88 | GART (effect direction: stabilized) (UniProt P22102)
2.94 | GGPS1 (effect direction: destabilized) (UniProt O95749)
3.03 | GLA (effect direction: stabilized) (UniProt P06280)
3.35 | GLB1 (effect direction: stabilized) (UniProt P16278)
< 2.7 | GLO1 (effect direction: destabilized) (UniProt Q04760)
< 2.7 | GLOD4 (effect direction: stabilized) (UniProt Q9HC38)
< 2.7 | GLRX3 (effect direction: stabilized) (UniProt O76003)
4.21 | GLUD1 (effect direction: stabilized) (UniProt P00367)
< 2.7 | GNAS (effect direction: stabilized) (UniProt P63092)
3.16 | GNE (effect direction: stabilized) (UniProt Q9Y223)
3.09 | GPD1L (effect direction: stabilized) (UniProt Q8N335)
3.19 | GPKOW (effect direction: stabilized) (UniProt Q92917)
2.83 | GPN1 (effect direction: destabilized) (UniProt Q9HCN4)
2.74 | GPN3 (effect direction: destabilized) (UniProt Q9UHW5)
< 2.7 | GPS1 (effect direction: stabilized) (UniProt Q13098)
3.13 | GRAMD4 (effect direction: stabilized) (UniProt Q6IC98)

pEC50 | Target
3.54 | GRAP (effect direction: stabilized) (UniProt Q13588)
4.04 | GRPEL1 (effect direction: destabilized) (UniProt Q9HAV7)
2.83 | GRSF1 (effect direction: stabilized) (UniProt Q12849)
2.94 | GSN (effect direction: stabilized) (UniProt P06396)
3.56 | GSS (effect direction: stabilized) (UniProt P48637)
< 2.7 | GSTO1 (effect direction: stabilized) (UniProt P78417)
3.26 | GTF2B (effect direction: stabilized) (UniProt Q00403)
3.28 | GTF2I (effect direction: stabilized) (UniProt P78347)
3.03 | GTF3A (effect direction: stabilized) (UniProt Q92664)
3.28 | GTPBP1 (effect direction: stabilized) (UniProt O00178)
5.03 | GYS1 (effect direction: destabilized) (UniProt P13807)
< 2.7 | H1FX (effect direction: destabilized) (UniProt Q92522)
2.83 | HEATR3 (effect direction: stabilized) (UniProt Q7Z4Q2)
3.22 | HEXA (effect direction: stabilized) (UniProt P06865)
3.01 | HEXB (effect direction: stabilized) (UniProt P07686)
< 2.7 | HIST1H1B (effect direction: destabilized) (UniProt P16401)
4.05 | HIST1H1C (effect direction: destabilized) (UniProt P16403)
4.11 | HLTF (effect direction: stabilized) (UniProt Q14527)
3.52 | HMGN4 (effect direction: stabilized) (UniProt O00479)
< 2.7 | HNRNPF (effect direction: stabilized) (UniProt P52597)
2.93 | HNRNPH1 (effect direction: stabilized) (UniProt P31943)
